Our source for the EC50 values is patent publication US9714231B2, “Pyrrolidine GPR40 modulators” (BRISTOL-MYERS SQUIBB COMPANY, priority 2012, dated 2017).

In the assay the target is human GPR40 (Homo sapiens, UniProt O14842). In words: FDSS-based intracellular calcium assay (Human GRP40 in vitro assay). In kind it is cell-based. Also noted: 3xFLAG; expressed in transfected cells. To be noted: cells expressing GPR40, intracellular Ca2+ response, FDSS reader; read-out: hGPR40 EC50. The method in brief: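 GPR40-expressing cells, plated overnight in serum-free phenol red-free DMEM, loaded with Fluo-3 in HBSS with 1.7 mM probenecid for 30 min at 37° C. Compounds in DMSO, diluted in assay buffer, added as 3× solutions; intracellular Ca^2+ response read on FDSS.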

As a reminder, the EC50 is the concentration at which the effect is half-maximal.

Counter-ions that a name gives are not always drawn.

Sequence of human GPR40 (O14842 whole entry): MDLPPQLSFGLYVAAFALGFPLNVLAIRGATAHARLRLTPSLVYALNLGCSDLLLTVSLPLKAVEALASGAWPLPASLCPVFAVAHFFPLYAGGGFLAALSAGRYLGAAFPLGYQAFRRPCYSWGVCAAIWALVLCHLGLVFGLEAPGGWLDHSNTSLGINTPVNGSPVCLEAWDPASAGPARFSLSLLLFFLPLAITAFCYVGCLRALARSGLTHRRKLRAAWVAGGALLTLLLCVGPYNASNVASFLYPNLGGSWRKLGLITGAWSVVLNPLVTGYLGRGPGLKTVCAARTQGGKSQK

Take `COc1cc(N2CCC(Oc3ncc(N4C[C@H](F)[C@@H](C)[C@@H]4CC(=O)O)cc3F)C(C)C2)c(Cl)cn1` (stereo partly drawn) [Example 164, 2-((2S,3S,4R)-1-(6-(((3,4-trans)-1-(5-Chloro-2-methoxypyridin-4-yl)-3-methylpiperidin-4-yl)oxy)-5-fluoropyridin-3-yl)-4-fluoro-3-methylpyrrolidin-2-yl)acetic acid]: the EC50 amounted to 110 nM. `COc1cc(N2CCC(Oc3ccc(N4C[C@H](C(F)(F)F)C[C@@H]4CC(=O)O)cc3Cl)C(C)C2)c(Cl)cn1` (stereo partly drawn) [Example 136, 2-((2R,4R)-1-(3-Chloro-4-(((3,4-trans)-1-(5-chloro-2-methoxypyridin-4-yl)-3-methylpiperidin-4-yl)oxy)phenyl)-4-(trifluoromethyl)pyrrolidin-2-yl)acetic acid]: the EC50 was found to be 500 nM. Consider `O=C(O)C[C@H]1C[C@@H](C(F)(F)F)CN1c1ccc(OC2CCN(c3ccccc3)CC2)cc1` [Example 22, 2-((2R,4R)-1-(4-((l-Phenylpiperidin-4-yl)oxy)phenyl)-4-(trifluoromethyl)pyrrolidin-2-yl)acetic acid, HCl], for which the half-maximal effective concentration (EC50) stood at 1800 nM.

As for `COc1cc(N2CCC(Oc3ccc(N4C[C@H](OC)CC4CC(=O)O)c(F)c3F)C(C)C2)c(Cl)cn1` (single isomer, unassigned) [Example 141, Isomer 1], the EC50 was found to be 410 nM. Under `COc1cc(N2CCC(Oc3ccc(N4C[C@H](OC)[C@@H](F)[C@@H]4CC(=O)O)cc3)C(C)C2)c(Cl)cn1` (single isomer, unassigned) [Example 147, Isomer 1, HCl] stands 170 nM; under `COc1ccc(C)c(N2CCC(Oc3ccc(N4C[C@H](OC)C[C@@H]4CC(=O)O)cc3)C(C)C2)c1` (single isomer, unassigned) [Example 64, Isomer 2], 120 nM; under `CCOc1ccc(F)c(N2CCC(Oc3ccc(N4C[C@H](C(F)(F)F)C[C@@H]4CC(=O)O)cc3)C(C)C2C)c1` (single isomer, unassigned) [Example 44, Isomer 1, HCl], 500 nM. For the compound `COc1cc(N2CCC(Oc3ccc(N4C[C@H](F)[C@@H](C)[C@@H]4CC(=O)O)cn3)C(C)C2)c(Cl)cn1` (stereo partly shown) [Example 146], the EC50 stood at 90 nM.

On to `O=C(O)C[C@H]1C[C@@H](C(F)(F)F)CN1c1ccc(OC2CCN(c3ccccc3F)CC2)cc1` [Example 20, 2-((2R,4R)-1-(4-((1-(2-Fluorophenyl)piperidin-4-yl)oxy)phenyl)-4-(trifluoromethyl)pyrrolidin-2-yl)acetic acid, TFA], for which the EC50 came out at 750 nM. On to `CCOc1ccc(F)c(N2CCC(Oc3ccc(N4C[C@H](Oc5cccc(Cl)c5)C[C@@H]4CC(=O)O)cc3)CC2)c1` [Example 69, 2-((2R,4R)-4-(3-Chlorophenoxy)-1-(4-(1-(5-ethoxy-2-fluorophenyl)piperidin-4-yloxy)phenyl)pyrrolidin-2-yl)acetic acid], for which the EC50 worked out at 160 nM.

Take `COc1cc(N2CCC(Oc3ncc(N4C[C@H](OC)[C@@H](C)[C@@H]4CC(=O)O)cc3F)C(C)C2)c(Cl)cn1` (stereo partly drawn) [Example 159, 2-((2S,3S,4R)-1-(6-(((3,4-trans)-1-(5-Chloro-2-methoxypyridin-4-yl)-3-methylpiperidin-4-yl)oxy)-5-fluoropyridin-3-yl)-4-methoxy-3-methylpyrrolidin-2-yl)acetic acid]: the EC50 is 85 nM. As to `COc1cc(N2CCC(Oc3ccc(N4C[C@H](C)C[C@@H]4CC(=O)O)cn3)C(C)C2)c(Cl)cn1` (stereo partly drawn) [Example 110, 2-((2R,4R)-1-(6-(((3,4-trans)-1-(5-Chloro-2-methoxypyridin-4-yl)-3-methylpiperidin-4-yl)oxy)pyridin-3-yl)-4-methylpyrrolidin-2-yl)acetic acid], the EC50 was determined as 220 nM. As for `CCOc1ccc(F)c(N2CCC(Oc3ccc(N4C[C@H](n5ccnn5)C[C@@H]4CC(=O)O)cc3)CC2)c1` [Example 81, 2-((2R,4R)-1-(4-(1-(5-Ethoxy-2-fluorophenyl)piperidin-4-yloxy)phenyl)-4-(1H-1,2,3-triazol-1-yl)pyrrolidin-2-yl)acetic acid], the EC50 worked out at 1000 nM. Take `CCOc1ccc(F)c(N2CCC(Oc3ccc(N4C[C@H](Oc5ccc(Cl)cc5)C[C@@H]4CC(=O)O)cc3)CC2)c1` [Example 73, 2-((2R,4R)-4-(4-Chlorophenoxy)-1-(4-(1-(5-ethoxy-2-fluorophenyl)piperidin-4-yloxy)phenyl)pyrrolidin-2-yl)acetic acid]: the EC50 is 1600 nM. For the compound `CCOc1ccc(F)c(N2CCC(Oc3ccc(N4C[C@H](c5ccccc5)C[C@@H]4CC(=O)O)cc3)C(C)C2)c1` (stereo partly drawn) [Example 41, 2-((2R,4S)-1-(4-(((3,4-trans)-1-(5-Ethoxy-2-fluorophenyl)-3-methylpiperidin-4-yl)oxy)phenyl)-4-phenylpyrrolidin-2-yl)acetic acid, HCl], the concentration giving a half-maximal response (EC50) came to 230 nM.

Turning to `CCOc1ccc(F)c(N2CCC(Oc3ccc(N4C[C@H](Oc5ccccc5C#N)C[C@@H]4CC(=O)O)cc3)CC2)c1` [Example 66, 2-((2R,4R)-4-(2-Cyanophenoxy)-1-(4-(1-(5-ethoxy-2-fluorophenyl)piperidin-4-yloxy)phenyl)pyrrolidin-2-yl)acetic acid], the EC50 came out at 1400 nM.

Take `CCOc1ccc(F)c(N2CCC(Oc3ccc(N4C[C@H](OC)[C@@H](C)[C@@H]4CC(=O)O)cn3)CC2)c1` [Example 95, 2-((2S,3S,4R)-1-(6-((1-(5-Ethoxy-2-fluorophenyl)piperidin-4-yl)oxy)pyridin-3-yl)-4-methoxy-3-methylpyrrolidin-2-yl)acetic acid, TFA]: the EC50 is 510 nM.

For the compound `COc1cc(N2CCC(Oc3ccc(N4C[C@H](OC)[C@@H](C)[C@@H]4CC(=O)O)c(F)c3)C(C)C2)c(Cl)cn1` (stereo partly drawn) [Example 111, 2-((2S,3S,4R)-1-(4-(((3,4-trans)-1-(5-Chloro-2-methoxypyridin-4-yl)-3-methylpiperidin-4-yl)oxy)-2-fluorophenyl)-4-methoxy-3-methylpyrrolidin-2-yl)acetic acid], the EC50 came out at 110 nM. On to `COc1ccc(F)c(N2CCC(Oc3ccc(N4C[C@H](F)C[C@@H]4CC(=O)O)cc3)C(C)C2)c1` (stereo partly drawn) [Example 25, 2-((2S,4R)-4-Fluoro-1-(4-((1-(2-fluoro-5-methoxyphenyl)-3-methylpiperidin-4-yl)oxy)phenyl)pyrrolidin-2-yl)acetic acid, TFA], for which the EC50 amounted to 77 nM. In the case of `CCOc1ccc(F)c(N2CCC(Oc3ccc(N4C[C@H](C(F)(F)F)C[C@@H]4CC(=O)O)cc3)C(CC)C2)c1` (single isomer, unassigned) [Example 33, Isomer 1, HCl], the EC50 was 1900 nM. Under `CCOc1ccc(F)c(N2CCC(Oc3ccc(N4C[C@H](C(F)(F)F)C[C@@H]4CC(=O)O)cc3)C(Cc3ccccc3)C2)c1` (single isomer, unassigned) [Example 36, Isomer 1, HCl] stands 6000 nM; under `COc1cc(N2CCC(Oc3ccc(N4CC[C@@H](C)[C@@H]4CC(=O)O)cc3)C(C)C2)c(Cl)cn1` (stereo partly drawn) [Example 154, 2-((2S,3R)-1-(4-(((3,4-trans)-1-(5-Chloro-2-methoxypyridin-4-yl)-3-methylpiperidin-4-yl)oxy)phenyl)-3-methylpyrrolidin-2-yl)acetic acid, TFA], 110 nM. With `CCOc1ccc(F)c(N2CCC(Oc3ccc(N4C[C@H](n5cnnn5)C[C@@H]4CC(=O)O)cc3)CC2)c1` [Example 45, 2-((2R,4R)-1-(4-((1-(5-Ethoxy-2-fluorophenyl)piperidin-4-yl)oxy)phenyl)-4-(1H-tetrazol-1-yl)pyrrolidin-2-yl)acetic acid, HCl], the EC50 stood at 1900 nM. Consider `COc1ccc(F)c(N2CCC(Oc3ccc(N4C[C@H](OC)C[C@@H]4CC(=O)O)cc3)C(C)C2)c1` (single isomer, unassigned) [Example 17, Isomer 1], for which the half-maximal effective concentration (EC50) came out at 340 nM. Regarding `CCOc1ccc(F)c(N2CCC(Oc3ccc(N4C[C@H](C(F)(F)F)C[C@@H]4CC(=O)O)cc3)C(CC(C)C)C2)c1` (single isomer, unassigned) [Example 35, Isomer 1, HCl], the EC50 is 1800 nM. For `CCOc1ccc(F)c(N2[C@H](C)C[C@H](Oc3ccc(N4C[C@H](C(F)(F)F)C[C@@H]4CC(=O)O)cc3)C[C@@H]2C)c1` [Example 42, 2-((2R,4R)-1-(4-(((2R,4R,6S)-1-(5-Ethoxy-2-fluorophenyl)-2,6-dimethylpiperidin-4-yl)oxy)phenyl)-4-(trifluoromethyl)pyrrolidin-2-yl)acetic acid, HCl], the EC50 came out at 240 nM. For the compound `COc1cc(N2CCC(Oc3ccc(N4C[C@H](OC)C[C@@H]4CC(=O)O)cn3)C(C)C2)c(C2CCCC2)cn1` (stereo partly drawn) [Example 149, 2-((2R,4R)-1-(6-(((3,4-trans)-1-(5-Cyclopentyl-2-methoxypyridin-4-yl)-3-methylpiperidin-4-yl)oxy)pyridin-3-yl)-4-methoxypyrrolidin-2-yl)acetic acid], the EC50 is 160 nM. Under `CCOc1ccc(F)c(N2CCC(Oc3ccc(N4C[C@H](OC)[C@@H](C)[C@@H]4CC(=O)O)cc3F)C(C)C2)c1` (stereo partly drawn) [Example 100, 2-((2S,3S,4R)-1-(4-(((3,4-trans)-1-(5-Ethoxy-2-fluorophenyl)-3-methylpiperidin-4-yl)oxy)-3-fluorophenyl)-4-methoxy-3-methylpyrrolidin-2-yl)acetic acid] stands 110 nM. `CCOc1ccc(F)c(N2CCC(Oc3ccc(N4C[C@H](C(F)(F)F)C[C@@H]4CC(=O)O)c(F)c3)CC2)c1` [Example 143]: the EC50 is 360 nM. `CCOc1ccc(F)c(N2CCC(Oc3ccc(N4C[C@H](OC)[C@@H](C5CC5)[C@@H]4CC(=O)O)cc3)CC2)c1` [Example 90, 2-((2S,3S,4R)-3-Cyclopropyl-1-(4-((1-(5-ethoxy-2-fluorophenyl)piperidin-4-yl)oxy)phenyl)-4-methoxypyrrolidin-2-yl)acetic acid, TFA]: the EC50 was determined as 190 nM. Turning to `CCOc1ccc(F)c(N2CCC(Oc3ccc(N4C[C@H](Oc5ncccn5)C[C@@H]4CC(=O)O)cc3)CC2)c1` [Example 78, 2-((2R,4R)-1-(4-(1-(5-Ethoxy-2-fluorophenyl)piperidin-4-yloxy)phenyl)-4-(pyrimidin-2-yloxy)pyrrolidin-2-yl)acetic acid, TFA], the EC50 was 1600 nM.
